Test [1] deals with MSC. Briefly: MSC osteoblast maturation, function, migration and lineage potentials. It counts as cell-based.
The test system of test [2] is C57BL/6 mice. The test can be described thus: Guiding GFP-labeled mouse MSCs to bone. In kind it is in vivo. The settings on record: for osteocalcin levels: 0.9 nmol/mouse I.P. one hour after GFP-MSC I.V. How it is done: LLP2A-Ale or LLP2A-Ale (1) were dissolved in 0.9% normal saline and injected I.P. to the mice one hour after MSC at a final solution of 0.9 nmol/mouse. Mice were sacrificed either at 3 days or 3 weeks. Osteocalcin, a bone formation marker, was measured at both 3 days and 3 weeks post-treatments. The lumbar vertebral bodies from the 3-day treatment groups were frozen and sectioned with cryostat. The sections were then stained with anti-GFP antibody. The transplanted MSCs were stained in brown.

In test [3] the test system is bone marrow cells undergoing osteogenic differentiation. Briefly: Rainbow bead cell-binding assay. It counts as cell-based, mouse. The conditions noted are these: cells cultured in osteogenic medium for 7 days, incubated with rainbow beads. The method, then: Mouse MSCs were purchased from Invitrogen (Cat#S1502-100), cultured in osteogenic medium for 7 days and incubated with rainbow beads for one hour. […] Original magnification 10× on the right and 20× on the left of the top panel.
A new color-encoding method that facilitates high-throughput screening of OBOC combinatorial libraries was developed. This method differs from the traditional methods used to monitor integrin expressions in the MSCs, i.e., the use of antibody-based fluorescence-activated cell sorting (FACS) or immunoblotting. In the present method, polymer beads displaying chemical compounds or families of compounds were stained with oil-based organic dyes that are used as coding tags. […] These rainbow beads were prepared in a multiplex manner such that each ligand reacted to one or a series of integrins that were coded one color, See FIG. 7 (Luo, J., et al., J Comb Chem, 2008, 10(4): p. 599-604). This rainbow bead technique was then applied to determine the integrin profile on the cell surfaces.
In FIG. 7, bone marrow cells were cultured in osteogenic medium for 7 days and incubated with rainbow beads. The purple beads that coded with LLP2A, the ligand with high affinity and specificity against α4β1, were covered with layers of cells identified by green arrows. […]

Test [4] concerns C57BL/6 mice. Briefly: Age-related trabecular bone loss after peak bone acquisition. In kind it is in vivo, mouse. The text has this:
FIGS. 18A and B show LLP2A-Ale increases bone formation parameters at the trabecular DF (P<0.05) in C57BL/6 mice.

`Cc1ccccc1NC(=O)Nc1ccc(CC(=O)N[C@@H](CCCCNC(=O)/C=C/c2cccnc2)C(=O)N[C@@H](CCCC(=O)O)C(=O)NC2(C(=O)NCCOCCOCCNC(=O)CCC(=O)NCCOCCOCCNC(=O)CCC(=O)N[C@@H](CCCCNC(=O)[C@H](N)CSC3CC(=O)N(CC4CCC(C(=O)NCCCC(O)(P(=O)(O)O)P(=O)(O)O)CC4)C3=O)C(N)=O)CCCCC2)cc1` (stereo partly drawn) [LLP2A-Ale, LLP2A-Alendronate]: in test [1], the “MSC chondrogenic or adipogenic potentials” value was “without affecting”; the “MSC osteoblast maturation, function and migration” value is reported as “increases”. In test [2] (lumbar vertebral bodies, three days), the “location of transplanted MSCs (anti-GFP staining)” value is “observed within bone marrow and adjacent to the trabecular bone surfaces”. Also, in test [2] (three days), the osteocalcin levels result is on record as “significantly increased”. The osteocalcin levels entry in test [2] (three weeks) is “significantly increased”. The “cell binding to ligand-coded rainbow beads (affinity)” value in test [3] was “high affinity”. In addition, the “bone formation parameters at the trabecular DF” value in test [4] (P<0.05) was “increases”. In addition, in test [4] (mouse, in vivo), the “age-related trabecular bone (loss) after peak bone acquisition” value is “prevents” and the “bone formation parameters at trabecular bone surfaces in the lumbar vertebral bodies (LVB)” value is “increases”.

The record behind these values is patent publication US9119884B2, “LLP2A-bisphosphonate conjugates for osteoporosis treatment” (The Regents of the University of California, priority 2010, dated 2015).
